IC50 data for 33 compounds are collected here from patent US11685732B2, “MYST family histone acetyltransferase inhibitors” (Epizyme, Inc., priority 2017, dated 2023).

Usually IC50 stands for the point on the concentration scale where inhibition reaches its midpoint. The low end stands for greater potency in that assay, the high end for weaker potency in that assay.

Where only a bound is given, the exact number is not on record here.

The target of one assay is KAT-5 (Homo sapiens (Human), UniProt Q92993). The assay is described as follows: KAT-5 biochemical inhibition assay (SAMDI mass spectrometry). An outline of the steps: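 Acetylation of 1 μM peptide by 9 nM enzyme with 0.5 μM acetyl-CoA (final) was run 90 min at 25° C in Tris pH 8.0 buffer with DTT, after compound preincubation at 2% DMSO. Formic acid stopped the reaction, and product was quantified by SAMDI mass spectrometry to derive IC50.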

Another assay concerns the target KAT-6A (Homo sapiens (Human), UniProt Q92794). The assay is described as follows: KAT-6A biochemical inhibition assay (SAMDI mass spectrometry). An outline of the steps: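 IC50 values came from SAMDI time-of-flight mass spectrometry after formic acid quench (0.5% final). Acetylation ran 90 min at 25 °C with 1 μM acetyl coenzyme A and 1 μM peptide substrate, following compound pre-incubation with 12.5 nM KAT-6A in Tris buffer pH 8.0 containing DTT, 2% DMSO final.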

The next assay addresses KAT-8 (Homo sapiens (Human), UniProt Q9H7Z6). The assay is described as follows: KAT-8 biochemical inhibition assay (SAMDI mass spectrometry). On the procedure: KAT-8. Enzyme assay buffer was 50 mM Tris pH 8.0, 0.002% Tween20, 0.005% bovine skin gelatin, and 1 mM dithiothreitol (DTT). For determination of IC50 values, compounds were serially diluted with 2% (v/v) DMSO in the final reaction, pre-incubating each dilution of each compound with 40 μL of assay buffer containing KAT-8 enzyme (12.5 nM final concentration). 10 μL of assay buffer containing 1 μM peptide substrate and 5 μM acetyl coenzyme A (final concentrations) was added. Reactions (50 μL total) were then carried out at 25° C. for 90 minutes. Reactions were terminated by the addition of 0.5% formic acid (final concentration), and a sample of each reaction was analyzed by SAMDI Tech, Inc. (Chicago, Ill.) using self-assembled monolayer desorption/ionization time-of-flight mass spectrometry (Mrksich, M. (2008) Mass spectrometry of self-assembled monolayers: a new tool for molecular surface science. ACS Nano 2, 7-18).

Another assay has as its target KAT-7 (Homo sapiens (Human), UniProt O95251). The assay is described as follows: KAT-7 biochemical inhibition assay (SAMDI mass spectrometry). Summed up:
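Read-out was SAMDI time-of-flight MS of formic acid-quenched reactions (0.5% final). Compound dilutions (2% DMSO final) were pre-incubated with 6 nM KAT-7 in 50 mM Tris pH 8.0 with 1 mM DTT, then given 1 μM peptide substrate and 2 μM acetyl-CoA for 120 min at 25 °C. IC50 values were derived.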

KAT-5, sequence (Q92993 other isoform, or with tags, fused parts or gaps): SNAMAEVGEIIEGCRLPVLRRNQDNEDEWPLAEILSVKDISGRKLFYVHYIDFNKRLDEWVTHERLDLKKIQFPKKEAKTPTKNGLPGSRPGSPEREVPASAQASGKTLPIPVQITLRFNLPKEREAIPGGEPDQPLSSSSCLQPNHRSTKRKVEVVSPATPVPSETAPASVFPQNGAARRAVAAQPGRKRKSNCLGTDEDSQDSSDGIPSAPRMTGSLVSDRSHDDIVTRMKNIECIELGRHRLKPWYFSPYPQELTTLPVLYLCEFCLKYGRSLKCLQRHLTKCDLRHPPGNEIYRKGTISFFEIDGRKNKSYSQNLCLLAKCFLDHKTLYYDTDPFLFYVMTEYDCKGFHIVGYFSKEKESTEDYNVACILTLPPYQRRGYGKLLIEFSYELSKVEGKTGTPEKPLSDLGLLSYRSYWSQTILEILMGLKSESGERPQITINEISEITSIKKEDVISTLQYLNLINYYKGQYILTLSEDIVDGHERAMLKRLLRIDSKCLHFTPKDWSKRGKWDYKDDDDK
KAT-6A, sequence (Q92794 other isoform, or with tags, fused parts or gaps): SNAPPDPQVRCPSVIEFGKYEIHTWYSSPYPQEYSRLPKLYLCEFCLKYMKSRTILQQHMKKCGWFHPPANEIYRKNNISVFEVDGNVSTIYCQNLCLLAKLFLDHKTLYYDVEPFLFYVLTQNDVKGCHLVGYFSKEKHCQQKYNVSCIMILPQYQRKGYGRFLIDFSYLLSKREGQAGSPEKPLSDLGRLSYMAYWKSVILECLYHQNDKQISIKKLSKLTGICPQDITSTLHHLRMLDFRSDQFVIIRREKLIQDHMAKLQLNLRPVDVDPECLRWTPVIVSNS
KAT-8, sequence (Q9H7Z6 other isoform, or with tags, fused parts or gaps): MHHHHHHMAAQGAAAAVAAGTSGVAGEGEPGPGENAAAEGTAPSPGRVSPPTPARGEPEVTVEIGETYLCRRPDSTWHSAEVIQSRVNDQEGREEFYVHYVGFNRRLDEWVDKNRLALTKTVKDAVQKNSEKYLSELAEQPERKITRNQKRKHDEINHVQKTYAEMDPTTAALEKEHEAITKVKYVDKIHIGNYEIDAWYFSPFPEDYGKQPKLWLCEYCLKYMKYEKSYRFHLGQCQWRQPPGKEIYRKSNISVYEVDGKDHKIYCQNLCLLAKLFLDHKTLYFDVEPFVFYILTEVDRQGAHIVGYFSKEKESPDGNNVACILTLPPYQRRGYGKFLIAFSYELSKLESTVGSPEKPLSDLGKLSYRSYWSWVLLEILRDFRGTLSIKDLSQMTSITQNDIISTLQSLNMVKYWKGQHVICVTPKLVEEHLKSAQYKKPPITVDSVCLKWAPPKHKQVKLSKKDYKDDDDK
KAT-7, sequence (O95251 other isoform, or with tags, fused parts or gaps): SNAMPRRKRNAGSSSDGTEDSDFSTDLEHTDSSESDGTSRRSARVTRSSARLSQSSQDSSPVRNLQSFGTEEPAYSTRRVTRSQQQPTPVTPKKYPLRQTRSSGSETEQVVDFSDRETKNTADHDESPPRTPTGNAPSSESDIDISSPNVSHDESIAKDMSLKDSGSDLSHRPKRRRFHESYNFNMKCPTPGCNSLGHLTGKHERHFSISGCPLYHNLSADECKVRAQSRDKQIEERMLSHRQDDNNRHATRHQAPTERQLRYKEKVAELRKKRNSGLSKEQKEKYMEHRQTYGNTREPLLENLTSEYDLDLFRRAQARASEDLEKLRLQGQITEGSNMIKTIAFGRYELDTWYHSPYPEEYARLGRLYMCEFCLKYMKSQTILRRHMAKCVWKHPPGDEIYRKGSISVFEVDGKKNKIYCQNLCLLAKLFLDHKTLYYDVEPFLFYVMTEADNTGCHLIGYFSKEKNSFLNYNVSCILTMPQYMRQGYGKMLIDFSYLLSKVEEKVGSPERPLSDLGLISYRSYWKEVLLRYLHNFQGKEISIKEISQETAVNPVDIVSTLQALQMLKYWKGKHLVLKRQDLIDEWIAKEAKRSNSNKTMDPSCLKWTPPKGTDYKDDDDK

On to `O=C(NNS(=O)(=O)CC1CCOCC1)c1cc(-n2cccn2)cc(Cl)c1F` [Compound I-41], for which the IC50 against KAT-5 is 10 to 50 µM; against KAT-6A, less than 10 µM; against KAT-8, greater than 100 µM; against KAT-7, 50 to 100 µM.
For `Cn1cnc(-c2cc(Cl)c(F)c(C(=O)NNS(=O)(=O)C3COC3)c2)c1` [Compound I-42] the same measures were greater than 100 µM, greater than 100 µM, greater than 100 µM and less than 10 µM.
The matching figures for `Cc1ccn(-c2cc(Cl)c(F)c(C(=O)NNS(=O)(=O)CC3CCOCC3)c2)n1` [Compound I-43]: 10 to 50 µM, less than 10 µM, greater than 100 µM and 50 to 100 µM.
The matching figures for `O=C(NNS(=O)(=O)CC1CCCCC1)c1cc(-n2ccnc2)cc(Cl)c1F` [Compound I-44]: 50 to 100 µM, greater than 100 µM, greater than 100 µM and greater than 100 µM.
For the compound `Cc1ncn(C)c1-c1cc(Cl)c(F)c(C(=O)NNS(=O)(=O)CC2CCCCC2)c1` [Compound I-45], the IC50 at KAT-5 was greater than 100 µM; against KAT-6A it was greater than 100 µM; against KAT-8 it was greater than 100 µM; on KAT-7, 50 to 100 µM.
Regarding `CCn1cc(-c2cc(Cl)c(F)c(C(=O)NNS(=O)(=O)C3CCCCC3)c2)nc1C` [Compound I-46], the IC50 against KAT-5 was 10 to 50 µM; against KAT-6A it was 50 to 100 µM; against KAT-8, greater than 100 µM; on KAT-7, less than 10 µM.
The matching figures for `O=C(NNS(=O)(=O)CC1CCOCC1)c1cc(-n2ccnc2)cc(Cl)c1F` [Compound I-47]: less than 10 µM, 50 to 100 µM, greater than 100 µM and greater than 100 µM.
For `O=C(NNS(=O)(=O)CC1CCOCC1)c1cc(-c2cscn2)cc(Cl)c1F` [Compound I-48] the same measures were less than 10 µM, less than 10 µM, greater than 100 µM and less than 10 µM.
For `Cc1cn(-c2cc(Cl)c(F)c(C(=O)NNS(=O)(=O)CC3CCOCC3)c2)cn1` [Compound I-49] the same measures were greater than 100 µM, greater than 100 µM, greater than 100 µM and greater than 100 µM.
For `Cc1cn(-c2cc(Cl)c(F)c(C(=O)NNS(=O)(=O)CC3CCOCC3)c2)nn1` [Compound I-50], the IC50 against KAT-5 is less than 10 µM; at KAT-6A, less than 10 µM; on KAT-8, greater than 100 µM; at KAT-7, 10 to 50 µM.
With `Cn1cnc(-c2cc(Cl)c(F)c(C(=O)NNS(=O)(=O)CC3CCCCC3)c2)c1` [Compound I-51, N′-(3-chloro-2-fluoro-5-(1-methyl-1H-imidazol-4-yl)benzoyl)-1-cyclohexyl methanesulfonohydrazide], the IC50 against KAT-5 was less than 10 µM; against KAT-6A, less than 10 µM; at KAT-8, 10 to 50 µM; on KAT-7, less than 10 µM.
As to `CCn1cc(S(=O)(=O)NNC(=O)c2cc(-c3cn(C)cn3)cc(Cl)c2F)cn1` [Compound I-52], the IC50 at KAT-5 is 10 to 50 µM; against KAT-6A, 10 to 50 µM; against KAT-8, greater than 100 µM; on KAT-7 it was less than 10 µM.
Take `Cn1cnc(-c2cc(Cl)c(F)c(C(=O)NNS(=O)(=O)CC3CCCN(S(C)(=O)=O)C3)c2)c1` (stereo not drawn) [Compound I-53]: the IC50 at KAT-5 was less than 10 µM; against KAT-6A it was less than 10 µM; on KAT-8, 50 to 100 µM; on KAT-7, less than 10 µM.
For the compound `Cc1ncc(-c2cc(Cl)c(F)c(C(=O)NNS(=O)(=O)C3CCOCC3)c2)n1C` [Compound I-54], the IC50 against KAT-5 is 50 to 100 µM; at KAT-6A, greater than 100 µM; on KAT-8, greater than 100 µM; against KAT-7, greater than 100 µM.
For `Cn1cc(-c2cc(Cl)c(F)c(C(=O)NNS(=O)(=O)CC3CCCCC3)c2)nn1` [Compound I-55], the IC50 is less than 10 µM against KAT-5, less than 10 µM against KAT-6A, 10 to 50 µM at KAT-8 and less than 10 µM at KAT-7.
As for `COCCC(=O)N1CCC(CS(=O)(=O)NNC(=O)c2cc(-c3cn(C)cn3)cc(Cl)c2F)C1` (stereo not drawn) [Compound I-56], the IC50 was 10 to 50 µM on KAT-5, 10 to 50 µM on KAT-6A, 10 to 50 µM against KAT-8 and less than 10 µM against KAT-7.
`CC(=O)N1CCC(CS(=O)(=O)NNC(=O)c2cc(-c3cn(C)cn3)cc(Cl)c2F)C1` (stereo not drawn) [Compound I-57]: the IC50 is 10 to 50 µM on KAT-5, 10 to 50 µM against KAT-6A, 10 to 50 µM at KAT-8 and less than 10 µM at KAT-7.
As for `Cc1nn(C)c(C)c1-c1cc(Cl)c(F)c(C(=O)NNS(=O)(=O)CC2CCOCC2)c1` [Compound I-58], the IC50 on KAT-5, at KAT-6A, at KAT-8 and against KAT-7 was greater than 100 µM in each case.
`Cc1ncc(-c2cc(Cl)c(F)c(C(=O)NNS(=O)(=O)C3CCCCC3)c2)n1C` [Compound I-59]: the IC50 against KAT-5 is 10 to 50 µM; at KAT-6A, greater than 100 µM; against KAT-8, greater than 100 µM; on KAT-7, greater than 100 µM.
Regarding `CCn1c(-c2cc(Cl)c(F)c(C(=O)NNS(=O)(=O)C3CCCCC3)c2)cnc1C` [Compound I-61], the IC50 is greater than 100 µM against KAT-5, greater than 100 µM against KAT-6A, greater than 100 µM on KAT-8 and 10 to 50 µM on KAT-7.
As for `COCC(=O)N1CCC(CS(=O)(=O)NNC(=O)c2cc(-c3cn(C)cn3)cc(Cl)c2F)C1` (stereo not drawn) [Compound I-62], the IC50 at KAT-5 was 10 to 50 µM; on KAT-6A, 10 to 50 µM; on KAT-8, 10 to 50 µM; on KAT-7 it was less than 10 µM.
With `Cn1cnc(-c2cc(Cl)c(F)c(C(=O)NNS(=O)(=O)CC3CCN(S(C)(=O)=O)C3)c2)c1` (stereo not drawn) [Compound I-63], the IC50 against KAT-5 was less than 10 µM; at KAT-6A, less than 10 µM; against KAT-8, 10 to 50 µM; on KAT-7, less than 10 µM.
On to `CCNC(=O)N1CCC(CS(=O)(=O)NNC(=O)c2cc(-c3cn(C)cn3)cc(Cl)c2F)C1` (stereo not drawn) [Compound I-64], for which the IC50 against KAT-5 was less than 10 µM; at KAT-6A, less than 10 µM; against KAT-8, 10 to 50 µM; against KAT-7 it was less than 10 µM.
`Cn1cnc(-c2cc(Cl)c(F)c(C(=O)NNS(=O)(=O)c3cnn(C)c3)c2)c1` [Compound I-65]: the IC50 was 50 to 100 µM at KAT-5, 10 to 50 µM against KAT-6A, greater than 100 µM against KAT-8 and less than 10 µM against KAT-7.
For `CN(C)C(=O)N1CCC(CS(=O)(=O)NNC(=O)c2cc(-c3cn(C)cn3)cc(Cl)c2F)C1` (stereo not drawn) [Compound I-66] the same measures were less than 10 µM, less than 10 µM, 10 to 50 µM and less than 10 µM.
The matching figures for `Cn1cc(-c2cc(Cl)c(F)c(C(=O)NNS(=O)(=O)CC3CCOCC3)c2)nn1` [Compound I-67]: 10 to 50 µM, 10 to 50 µM, greater than 100 µM and 10 to 50 µM.
The matching figures for `O=C(NNS(=O)(=O)CC1CCOCC1)c1cc(-c2cocn2)cc(Cl)c1F` [Compound I-68]: less than 10 µM, 10 to 50 µM, 10 to 50 µM and 10 to 50 µM.
`Cn1cnc(-c2cc(Cl)c(F)c(C(=O)NNS(=O)(=O)c3cn(C)nn3)c2)c1` [Compound I-69]: the IC50 is 10 to 50 µM at KAT-5, 10 to 50 µM on KAT-6A, 10 to 50 µM against KAT-8 and less than 10 µM at KAT-7.
On to `Cc1nc(-c2cc(Cl)c(F)c(C(=O)NNS(=O)(=O)CC3CCOCC3)c2)cs1` [Compound I-70], for which the IC50 on KAT-5, on KAT-6A, against KAT-8 and against KAT-7 was 10 to 50 µM throughout.
Consider `Cn1cnc(-c2cc(Cl)c(F)c(C(=O)NNS(=O)(=O)c3cnnn3C)c2)c1` [Compound I-71], for which the IC50 against KAT-5 was 10 to 50 µM; against KAT-6A, 10 to 50 µM; at KAT-8 it was 10 to 50 µM; at KAT-7, less than 10 µM.
With `Cn1cnc(-c2cc(Cl)c(F)c(C(=O)NNS(=O)(=O)c3cnn(C)n3)c2)c1` [Compound I-72], the IC50 was 10 to 50 µM at KAT-5, less than 10 µM at KAT-6A, 10 to 50 µM against KAT-8 and less than 10 µM against KAT-7.
Turning to `CCC(=O)N1CCC(CS(=O)(=O)NNC(=O)c2cc(-c3cn(C)cn3)cc(Cl)c2F)C1` (stereo not drawn) [Compound I-73], the IC50 was less than 10 µM against KAT-5, 10 to 50 µM against KAT-6A, 10 to 50 µM on KAT-8 and less than 10 µM against KAT-7.
Regarding `Cc1ncn(-c2cc(Cl)c(F)c(C(=O)NNS(=O)(=O)CC3CCOCC3)c2)n1` [Compound I-74], the IC50 against KAT-5, at KAT-6A, at KAT-8 and against KAT-7 was 10 to 50 µM each time.
